# Laboratory results published in patent US11865086B2, “Cinnamaldehyde derivative compounds and methods of use for cinnamaldehyde derivative compounds nicotine cessation” (Pacific University, priority 2018, dated 2024).
# Like-named read-outs stand apart in the source and are kept apart here.
# How the values were obtained:
# CYP2A6 [1] = target: T1, CYP2A6 (Homo sapiens, UniProt P11509); experiment: biochemical
# T1 sequence (P11509 1-494): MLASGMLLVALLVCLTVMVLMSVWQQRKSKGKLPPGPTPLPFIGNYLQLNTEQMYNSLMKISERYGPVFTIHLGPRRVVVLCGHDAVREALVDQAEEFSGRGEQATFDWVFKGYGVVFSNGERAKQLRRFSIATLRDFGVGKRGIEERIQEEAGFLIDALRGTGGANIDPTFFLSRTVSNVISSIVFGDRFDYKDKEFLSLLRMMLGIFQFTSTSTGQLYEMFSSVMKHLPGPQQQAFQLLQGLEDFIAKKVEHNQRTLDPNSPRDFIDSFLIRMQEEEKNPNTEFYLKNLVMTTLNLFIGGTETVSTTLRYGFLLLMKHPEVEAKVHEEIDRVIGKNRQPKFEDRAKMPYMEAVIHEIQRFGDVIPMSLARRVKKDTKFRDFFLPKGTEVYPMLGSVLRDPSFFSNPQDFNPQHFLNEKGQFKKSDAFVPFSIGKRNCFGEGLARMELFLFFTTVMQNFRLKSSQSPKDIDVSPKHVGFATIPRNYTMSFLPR
# Source text: (§1) Since this type of inhibition also requires that the inhibitor is initially metabolized by the target enzyme, MBIs may be identified by evaluating the inhibition in the presence and absence of cofactors that are required for activity, such as NADPH for CYPs.
# CYP2A6 [2] = target: T1, CYP2A6; experiment: biochemical; remark: listed apart in the source
# Source text: A 96-well plate assay and fluorescence spectroscopy may be used to quantify the product, 7-hydroxycoumarin.
# Data was fit using GraphPad Prism.
# [3] = parameters: species or system humans; settings: human
# Method: This has also observed in rats, for which full pharmacokinetic studies are available. Converting the dose in rats to humanized equivalent doses can estimate the doses necessary to achieve low μM concentrations of CA in humans. […] In rats a single 250 mg/kg oral dose generated a t-CA blood concentration of 7.6 μM. With the BSA method, t-CA doses of 32 mg and 320 mg per day are estimated to achieve concentrations of 0.1 and 1 μM in humans.
# CYP2A6 [4] = target: T1, CYP2A6; settings: recombinant enzyme
# Source text: as §1
# [5] = rat, in vivo, po, 250 mg/kg; cited from earlier work
# [6] = in vivo; cited from earlier work
# CYP2A6 [7] = target: T2, CYP2A6 (Homo sapiens, UniProt P11509, K28S/Q25K/Q26K/R27T/W24A); experiment: biochemical
# T2 sequence (P11509 with tags, fused parts or gaps limits assumed): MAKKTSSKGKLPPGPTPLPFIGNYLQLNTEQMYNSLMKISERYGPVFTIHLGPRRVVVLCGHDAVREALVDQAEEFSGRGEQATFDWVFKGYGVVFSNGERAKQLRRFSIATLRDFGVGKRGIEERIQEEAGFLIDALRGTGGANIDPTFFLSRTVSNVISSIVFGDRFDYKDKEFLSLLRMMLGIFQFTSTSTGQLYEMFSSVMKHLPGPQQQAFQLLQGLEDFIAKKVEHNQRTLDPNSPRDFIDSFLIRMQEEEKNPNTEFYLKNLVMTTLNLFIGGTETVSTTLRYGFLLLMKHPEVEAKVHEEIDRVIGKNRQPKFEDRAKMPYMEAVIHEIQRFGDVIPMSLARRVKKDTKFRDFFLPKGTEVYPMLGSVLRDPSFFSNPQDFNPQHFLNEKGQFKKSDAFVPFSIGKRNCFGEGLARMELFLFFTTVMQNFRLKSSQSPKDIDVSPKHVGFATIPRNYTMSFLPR
# Method: Spectral binding studies were conducted using purified heterologously expressed CYP2A6 in Escherichia coli. […] Absorbance changes (A386-A418) may be plotted against added ligand concentrations in order to determine dissociation constants.
# In more detail, the CYP2A6 enzyme may be heterologously expressed in Escherichia coli and purified. The expression vector, pKK2A6dH may be used to express the enzyme. The vector contains a cDNA sequence that codes for human CYP2A6 with a deletion of the N-terminal transmembrane sequence, an alteration of several residues at the modified N-terminus to increase expression, and four histidine residues added at the C-terminus to aid in purification. […] Expression from the vector may be induced with the addition of IPTG to bacterial cultures. δ-Aminolevulinic acid is added during expression to supplement heme biosynthesis. The enzyme may be purified following previously reported protocols. Briefly, following cell disruption, the solubilized enzyme may be purified using Ni^2+-affinity chromatography and cation-exchange (CM sepharose) chromatography, which may lead to protein of high purity and P450 content.
smiles,measurement,setting,value
"O=C/C=C/c1ccccc1 [t-CA, trans-cinnamaldehyde]",Ki,CYP2A6 [1],27.2 µM
same,IC50,CYP2A6 [2],6.9 ± 1.2 µM
same,estimated t-CA dose,[3]; 0.1 μM,32 mg per day
same,estimated t-CA dose,[3]; 1 μM,320 mg per day
same,"time-dependent inhibition of CYP2A6, result in words",CYP2A6 [4],increases with time
same,t-CA blood concentration,[5],7.6 µM
same,absorption upon oral administration,[6],completely absorbed
same,Kd,CYP2A6 [7],14.9 µM
